{
  "source": "patent US7833331B2",
  "about": "“Non-toxic corrosion-protection pigments based on cobalt” (University of Dayton, priority 2007, dated 2010)",
  "key": {"[1]": {"assay": "Accelerated corrosion testing (both ASTM B-117 and G-85.5) of PVB wash primers, overall observation", "protocol": "The corrosion inhibiting performance of CoIII pigments was evaluated by incorporating them into primer paint formulations. […] The wash primer is composed of a resin, an acid, a corrosion inhibiting pigment, powdered talc, and carbon lampblack. The acid content of this wash primer provides a rigorous initial test of the stability and performance of the pigments. Other, more benign, polymer-based binder and resin systems might not separate the compounds based on their performance as effectively or as rapidly.\nPVB was used exclusively throughout testing to avoid preparation and compositional complications during analysis of pigment performance. However, the invention is not limited to the use of PVB.\nA small amount (0.2 g) of powdered talc (magnesium silicate) “filler” was added. Lampblack was not added to these samples. These components were mixed thoroughly by hand and 3.8 g of phosphoric acid diluent added with further mixing. This rough processing allowed direct comparisons of pigment performance to be made without complications due to powder treatments, modifications, and additives.\nThis is not the conventional paint application procedure for aluminum alloys. Under normal service conditions, aluminum alloys are first subjected to a hexavalent chromium-containing conversion coating prior to primer application. However, the conversion coating was omitted so that the performance of the pigment alone could be evaluated and not the synergistic effects of hexavalent chromium (in the conversion coating) or even of barrier films (in the phosphate or anodized coatings).\nThis accelerated corrosion test exposes samples to a constant salt-water fog and is a de facto test of solubility for corrosion inhibitors. […] This accelerated corrosion test exposes samples to a cycle of fog of dilute salt and ammonium sulfate at room temperature followed by forced-air drying at an elevated temperature.\nChromate pigments were precipitated from aqueous synthesis solutions and incorporated into PVB wash primer formulations so that each primer sample had the same molar quantity of hexavalent chromium. […] After the samples had dried for 24 hours, they were scribed and the edges of each sample taped to eliminate edge effects.\nWash primer coatings containing these pigments were prepared wherein the trivalent cobalt was present in identical molar concentrations from sample to sample. […] Pigments were made with chloride, bromide, sulfate, hexafluorosilicate, phosphate, molybdate, tungstate, and phosphomolybdate anions. Additionally, […] was also used as a pigment for this application."}, "[2]": {"assay": "ASTM B-117 static salt fog test of PVB wash primer with pigment, rated by ASTM D-1654", "settings": "ASTM D-1654 rating; for 2024-T3 B-117 Proc. A / 7075-T6 B-117 Proc. A: failure at scribe; for 2024-T3 B-117 Proc. B / 7075-T6 B-117 Proc. B: failure in unscribed areas", "protocol": "(§1) The corrosion inhibiting performance of CoIII pigments was evaluated by incorporating them into primer paint formulations. The acid wash primer paint formulations called out in DoD-P-15328 [Primer (Wash), Pretreatment (Formulation No. 117 for Metals)] were used to test the various pigments. The wash primer is composed of a resin, an acid, a corrosion inhibiting pigment, powdered talc, and carbon lampblack. The acid content of this wash primer provides a rigorous initial test of the stability and performance of the pigments. Other, more benign, polymer-based binder and resin systems might not separate the compounds based on their performance as effectively or as rapidly. The base solution for the wash primer in this specification was prepared by mixing 88.3 grams of isopropanol, 31.3 grams of n-butanol, and 3.8 grams of deionized water with 14 grams of poly(vinyl butyral) resin (PVB) (Monsanto Butvar B-90TM). PVB was used exclusively throughout testing to avoid preparation and compositional complications during analysis of pigment performance. However, the invention is not limited to the use of PVB. Acid diluent was prepared by mixing 70 grams of 85% phosphoric acid, 63 grams of deionized water, and 247 grams of isopropanol. Finely-ground pigment powder was measured out and added to 13.74 grams of the base solution for each paint to be tested. A small amount (0.2 g) of powdered talc (magnesium silicate) “filler” was added. Lampblack was not added to these samples. These components were mixed thoroughly by hand and 3.8 g of phosphoric acid diluent added with further mixing. This rough processing allowed direct comparisons of pigment performance to be made without complications due to powder treatments, modifications, and additives. […] This is not the conventional paint application procedure for aluminum alloys. Under normal service conditions, aluminum alloys are first subjected to a hexavalent chromium-containing conversion coating prior to primer application. However, the conversion coating was omitted so that the performance of the pigment alone could be evaluated and not the synergistic effects of hexavalent chromium (in the conversion coating) or even of barrier films (in the phosphate or anodized coatings). Multiple samples of specific pigment compositions were prepared and tested. […] The chromate pigments were prepared identically to those used to test CoIII composition variations. PVB wash primers containing various pigment formulations were evaluated by exposing them to static salt fog (ASTM B-117) and cyclic Prohesiomm (ASTM G-85.5) accelerated corrosion tests. ASTM B-117 is a traditional corrosion “proof” test that has little relation to a real working environment. This accelerated corrosion test exposes samples to a constant salt-water fog and is a de facto test of solubility for corrosion inhibitors. […] This is particularly true of inhibitors and compounds that have not been fully optimized with respect to solubility. ASTM G-85.5 (ProhesionTM) is a cyclic corrosion test that more closely resembles real working environments. This accelerated corrosion test exposes samples to a cycle of fog of dilute salt and ammonium sulfate at room temperature followed by forced-air drying at an elevated temperature. This is a more realistic test of the ability of a compound to inhibit corrosion. Results of these tests can be combined to gain insight into how a particular coating or compound will perform relative to a standard as well as helping identify strengths and weaknesses in the performance of the material. ASTM D-1654 evaluation standard for painted or coated specimens subjected to corrosive environments was used to evaluate the performance of the coatings. After the paint dried for 24 hours, each plate was scribed with an X and the plate edges were sealed with PVC tape to eliminate corrosion edge effects. Two visual observations are associated with this rating test. […]"}, "[3]": {"assay": "ASTM G-85.5 cyclic Prohesion test of PVB wash primer with pigment, rated by ASTM D-1654", "settings": "ASTM D-1654 rating; for 2024-T3 G-85 Proc. A / 7075-T6 G-85 Proc. A: failure at scribe; for 2024-T3 G-85 Proc. B / 7075-T6 G-85 Proc. B: failure in unscribed areas", "protocol": "as §1"}, "[4]": {"settings": "135 hours of both ASTM B-117 and G-85.5, identical molar concentrations of trivalent cobalt, 2024-T3 and 7075-T6"}, "[5]": {"settings": "144 hours, inhibitor conc. 1.49 × 10^−3 M (20% of Cr)"}, "[6]": {"settings": "139 hours, inhibitor conc. 7.44 × 10^−4 M (10% of Cr)"}, "[7]": {"settings": "117 hours, inhibitor conc. 1.49 × 10^−3 M (20% of Cr)"}},
  "note": "“And” between values parts separate entries of the source, which are not always exact repeats. Identical values can stand only once. “Also recorded” adds a separate entry of the source. Like-named read-outs stand apart in the source and are kept apart here.",
  "data": [
    {"compound": "[O]=[Co][O][Co]=[O]", "note": "[CO2O3, Co2O3, reference compound]", "values": [
      {"measurement": "corrosion resistance of trivalent cobalt pigments in PVB wash primer", "setting": "[1]; [4]", "result": "no discernable corrosion resistance at all"}
    ]},
    {"compound": "N.N.N.N.N.N.[Cl-].[Cl-].[Cl-].[Co+3]", "note": "[hexaaminecobalt(III) chloride]", "values": [
      {"measurement": "corrosion resistance of trivalent cobalt pigments in PVB wash primer", "setting": "[1]", "result": "performed very well in the early stages of the test and then failed as the test progressed"}
    ]},
    {"compound": "F[Si-2](F)(F)(F)(F)F.F[Si-2](F)(F)(F)(F)F.F[Si-2](F)(F)(F)(F)F.N.N.N.N.N.N.N.N.N.N.N.N.[Co+3].[Co+3]", "note": "[hexaaminecobalt(III) hexafluorosilicate]", "values": [
      {"measurement": "corrosion resistance of trivalent cobalt pigments in PVB wash primer", "setting": "[1]; [4]", "result": "performed the best of all"}
    ]},
    {"compound": "N.N.N.N.N.N.N.N.N.N.N.N.[Co+3].[Co+3].[O]=[Mo](=[O])([O-])[O-].[O]=[Mo](=[O])([O-])[O-].[O]=[Mo](=[O])([O-])[O-]", "note": "[hexaaminecobalt(III) molybdate]", "values": [
      {"measurement": "corrosion resistance of trivalent cobalt pigments in PVB wash primer", "setting": "[1]", "result": "a small amount of corrosion resistance; also recorded: performed the best of these three pigment compounds"}
    ]},
    {"compound": "N.N.N.N.N.N.N.N.N.N.N.N.[Co+3].[Co+3].[O]=[W](=[O])([O-])[O-].[O]=[W](=[O])([O-])[O-].[O]=[W](=[O])([O-])[O-]", "note": "[hexaaminecobalt(III) tungstate]", "values": [
      {"measurement": "corrosion resistance of trivalent cobalt pigments in PVB wash primer", "setting": "[1]", "result": "a small amount of corrosion resistance"}
    ]},
    {"compound": "barium 10-molybdocobaltate", "values": [
      {"measurement": "2024-T3 B-117 Proc. A", "setting": "[2]; [5]", "result": 7},
      {"measurement": "7075-T6 B-117 Proc. A", "setting": "[2]; [5]", "result": 6},
      {"measurement": "2024-T3 B-117 Proc. B", "setting": "[2]; [5]", "result": 6},
      {"measurement": "7075-T6 B-117 Proc. B", "setting": "[2]; [5]", "result": 5},
      {"measurement": "2024-T3 G-85 Proc. A", "setting": "[3]; [5]", "result": 7},
      {"measurement": "7075-T6 G-85 Proc. A", "setting": "[3]; [5]", "result": 7},
      {"measurement": "2024-T3 G-85 Proc. B", "setting": "[3]; [5]", "result": 7},
      {"measurement": "7075-T6 G-85 Proc. B", "setting": "[3]; [5]", "result": 7}
    ]},
    {"compound": "barium 11-tungstophosphocobaltate", "values": [
      {"measurement": "2024-T3 B-117 Proc. A", "setting": "[2]; [6]", "result": 7},
      {"measurement": "7075-T6 B-117 Proc. A", "setting": "[2]; [6]", "result": 7},
      {"measurement": "2024-T3 B-117 Proc. B", "setting": "[2]; [6]", "result": 6},
      {"measurement": "7075-T6 B-117 Proc. B", "setting": "[2]; [6]", "result": 6},
      {"measurement": "2024-T3 G-85 Proc. A", "setting": "[3]; [6]", "result": 7},
      {"measurement": "7075-T6 G-85 Proc. A", "setting": "[3]; [6]", "result": 7},
      {"measurement": "2024-T3 G-85 Proc. B", "setting": "[3]; [6]", "result": "7 and 6"},
      {"measurement": "7075-T6 G-85 Proc. B", "setting": "[3]; [6]", "result": 6}
    ]},
    {"compound": "calcium 6-molybdocobaltate", "values": [
      {"measurement": "2024-T3 B-117 Proc. A", "setting": "[2]; [7]", "result": "7 and 6"},
      {"measurement": "7075-T6 B-117 Proc. A", "setting": "[2]; [7]", "result": 7},
      {"measurement": "2024-T3 B-117 Proc. B", "setting": "[2]; [7]", "result": "5 and 6"},
      {"measurement": "7075-T6 B-117 Proc. B", "setting": "[2]; [7]", "result": 6},
      {"measurement": "2024-T3 G-85 Proc. A", "setting": "[3]; [7]", "result": 8},
      {"measurement": "7075-T6 G-85 Proc. A", "setting": "[3]; [7]", "result": 8},
      {"measurement": "2024-T3 G-85 Proc. B", "setting": "[3]; [7]", "result": 7},
      {"measurement": "7075-T6 G-85 Proc. B", "setting": "[3]; [7]", "result": 8}
    ]},
    {"compound": "calcium 10-molybdocobaltate", "values": [
      {"measurement": "2024-T3 B-117 Proc. A", "setting": "[2]; [5]", "result": 7},
      {"measurement": "7075-T6 B-117 Proc. A", "setting": "[2]; [5]", "result": "7 and 6"},
      {"measurement": "2024-T3 B-117 Proc. B", "setting": "[2]; [5]", "result": 6},
      {"measurement": "7075-T6 B-117 Proc. B", "setting": "[2]; [5]", "result": 6},
      {"measurement": "2024-T3 G-85 Proc. A", "setting": "[3]; [5]", "result": 9},
      {"measurement": "7075-T6 G-85 Proc. A", "setting": "[3]; [5]", "result": "8 and 9"},
      {"measurement": "2024-T3 G-85 Proc. B", "setting": "[3]; [5]", "result": 8},
      {"measurement": "7075-T6 G-85 Proc. B", "setting": "[3]; [5]", "result": "7 and 8"}
    ]}
  ]
}
